According to paper PMC9663578, “A fluorogenic probe for predicting treatment response in non-small cell lung cancer with EGFR-activating mutations” (Nature Communications, 2022):
Where “and” joins values, the source holds several entries; their conditions need not be identical. Equal entries are not always repeated.

Tests used:
EGFR T790M = biological target: T1, EGFR T790M (Homo sapiens, UniProt P00533, T790M); assay: Kinase inhibition assay (fluorescent mobility-shift assay); format: biochemical; design: Kinase activity: unit not given here; settings: for Kinase activity: T790M, n=1-3;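 on all read-outs here: Cell-free assay with recombinant human EGFR T790M enzyme, compound preincubated with the kinase at room temperature before the reaction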
T1 construct: EGFR T790M (amino acids 668–1210, #PR8052A); purchased Thermo Fisher PR8052A

H1975 cells = assay: MTT cytotoxicity assay; format: cell-based; settings: Homo sapiens, NCI-H1975; EGFR L858R/T790M, 48 h, n=3
EGFR = biological target: T2, EGFR (Homo sapiens, UniProt P00533); assay: Fluorescence spectra of HX103 with EGFR, alone or with competing inhibitors (Fig. 2a); format: binding
T2 construct: Recombinant human EGFR (amino acids 668–1210, #PR7295B); purchased Thermo Fisher PR7295B

PC-9 cells = assay: MTT cytotoxicity assay; format: cell-based; settings: Homo sapiens, EGFR 19del, 48 h, n=3
BSA = BSA (Bos taurus, UniProt P02769); assay: Fluorescence spectra of HX103 with BSA (Fig. 2c); format: binding
BSA, sequence (P02769 25-607): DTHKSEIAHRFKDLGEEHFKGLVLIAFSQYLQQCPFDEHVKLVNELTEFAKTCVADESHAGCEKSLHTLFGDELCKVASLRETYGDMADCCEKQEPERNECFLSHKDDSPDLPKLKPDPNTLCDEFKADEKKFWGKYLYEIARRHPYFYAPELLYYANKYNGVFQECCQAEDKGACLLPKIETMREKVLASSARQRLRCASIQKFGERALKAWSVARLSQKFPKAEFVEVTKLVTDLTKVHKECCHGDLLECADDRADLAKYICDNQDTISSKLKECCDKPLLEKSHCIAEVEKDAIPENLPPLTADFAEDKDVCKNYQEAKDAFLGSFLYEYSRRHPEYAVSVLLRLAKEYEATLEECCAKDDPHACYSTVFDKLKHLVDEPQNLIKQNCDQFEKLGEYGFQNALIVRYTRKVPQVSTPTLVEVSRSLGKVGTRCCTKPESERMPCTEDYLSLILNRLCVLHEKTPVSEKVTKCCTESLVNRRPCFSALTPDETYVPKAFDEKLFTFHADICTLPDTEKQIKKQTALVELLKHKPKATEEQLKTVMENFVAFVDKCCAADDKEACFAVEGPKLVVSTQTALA

T1 sequence (P00533 668-1210 T790M): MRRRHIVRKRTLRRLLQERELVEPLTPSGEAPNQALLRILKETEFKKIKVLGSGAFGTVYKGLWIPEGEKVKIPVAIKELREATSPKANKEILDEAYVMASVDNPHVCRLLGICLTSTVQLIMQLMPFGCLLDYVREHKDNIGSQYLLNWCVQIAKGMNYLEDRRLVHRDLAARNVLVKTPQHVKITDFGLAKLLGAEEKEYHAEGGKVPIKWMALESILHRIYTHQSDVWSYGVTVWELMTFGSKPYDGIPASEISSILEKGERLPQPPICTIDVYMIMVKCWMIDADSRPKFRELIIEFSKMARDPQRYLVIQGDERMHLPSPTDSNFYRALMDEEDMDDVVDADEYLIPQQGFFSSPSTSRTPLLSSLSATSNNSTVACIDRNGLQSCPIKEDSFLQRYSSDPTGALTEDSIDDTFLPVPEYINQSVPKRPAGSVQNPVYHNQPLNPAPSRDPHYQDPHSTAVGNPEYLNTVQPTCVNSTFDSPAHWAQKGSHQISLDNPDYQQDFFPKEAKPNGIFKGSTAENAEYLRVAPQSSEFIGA
T2 sequence (P00533 668-1210): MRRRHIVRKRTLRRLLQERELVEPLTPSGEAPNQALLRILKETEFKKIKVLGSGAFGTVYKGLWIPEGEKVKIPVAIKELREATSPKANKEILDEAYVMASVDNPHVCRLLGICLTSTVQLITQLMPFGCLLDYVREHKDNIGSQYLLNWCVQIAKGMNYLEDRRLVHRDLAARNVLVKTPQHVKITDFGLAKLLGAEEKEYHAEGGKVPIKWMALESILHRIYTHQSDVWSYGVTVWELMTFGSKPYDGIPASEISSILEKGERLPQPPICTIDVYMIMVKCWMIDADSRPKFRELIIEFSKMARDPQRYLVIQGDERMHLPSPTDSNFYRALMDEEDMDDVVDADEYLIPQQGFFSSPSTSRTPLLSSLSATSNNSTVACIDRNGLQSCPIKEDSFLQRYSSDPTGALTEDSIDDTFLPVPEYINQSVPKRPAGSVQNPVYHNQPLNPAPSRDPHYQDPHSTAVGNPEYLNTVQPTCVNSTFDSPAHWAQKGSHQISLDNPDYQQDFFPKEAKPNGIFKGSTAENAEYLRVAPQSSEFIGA

Structure (SMILES): COc1cc2c(Nc3ccc(F)c(Cl)c3)ncnc2cc1OCCCNc1ccc(S(=O)(=O)N(C)C)c2nonc12 [HX103]
- decrease of inhibition toward T790M compared to 19del (EGFR T790M; IC50 T790M vs 19del): ~ 750 fold
- decrease of inhibition toward T790M compared to L858R (EGFR T790M; IC50 T790M vs L858R): ~ 650 fold
- Kinase activity (EGFR T790M; Log [HX103 (M)] -4.5): 14.55 and 14.95 and 12.5
- Kinase activity (EGFR T790M; Log [HX103 (M)] -5): 16 and 19.07 and 16.33
- Kinase activity (EGFR T790M; Log [HX103 (M)] -5.5): 24.68 and 25.89 and 23.04
- Kinase activity (EGFR T790M; Log [HX103 (M)] -6): 50.45 and 49.72 and 50.33
- Kinase activity (EGFR T790M; Log [HX103 (M)] -6.5): 74.42 and 70.48 and 67.65
- Kinase activity (EGFR T790M; Log [HX103 (M)] -7): 85.94 and 86.13 and 86.01
- Kinase activity (EGFR T790M; Log [HX103 (M)] -7.5): 96.44 and 90.88 and 91.86
- Kinase activity (EGFR T790M; Log [HX103 (M)] -8): 104.4 and 100.7 and 101.1
- Kinase activity (EGFR T790M; Log [HX103 (M)] -8.5): 97.33 and 103.4 and 97.96
- Kinase activity (EGFR T790M; Log [HX103 (M)] -9): 98.09 and 98.85 and 98.65
- IC50 (EGFR T790M; n = 3): 0.977 µM
- IC50 (H1975 cells): 45 µM
- Fluorescence intensity, HX103+EGFR (EGFR; wavelength 666 nm): 3266.47
- Fluorescence intensity, HX103+EGFR (EGFR; wavelength 669 nm): 3104.58
- Fluorescence intensity, HX103+EGFR (EGFR; wavelength 671 nm): 2932.33
- Fluorescence intensity, HX103+EGFR (EGFR; wavelength 673 nm): 2750.71
- Fluorescence intensity, HX103+EGFR (EGFR; wavelength 676 nm): 2569.21
- Fluorescence intensity, HX103+EGFR (EGFR; wavelength 678 nm): 2397.75
- Fluorescence intensity, HX103+EGFR (EGFR; wavelength 681 nm): 2246.21
- Fluorescence intensity, HX103+EGFR (EGFR; wavelength 683 nm): 2119.91
- Fluorescence intensity, HX103+EGFR (EGFR; wavelength 686 nm): 2016.43
- Fluorescence intensity, HX103+EGFR (EGFR; wavelength 688 nm): 1932.61
- Fluorescence intensity, HX103+EGFR (EGFR; wavelength 690 nm): 1865.3
- Fluorescence intensity, HX103+EGFR (EGFR; wavelength 693 nm): 1811.29
- Fluorescence intensity, HX103+EGFR (EGFR; wavelength 695 nm): 1767.27
- Fluorescence intensity, HX103+EGFR (EGFR; wavelength 698 nm): 1729.9
- Fluorescence intensity, HX103+EGFR (EGFR; wavelength 700 nm): 1695.87
- IC50 (PC-9 cells): 1.8 µM
- Fluorescence intensity, BSA (BSA; wavelength 666 nm): 1883.79
- Fluorescence intensity, BSA (BSA; wavelength 669 nm): 1770.88
- Fluorescence intensity, BSA (BSA; wavelength 671 nm): 1700.55
- Fluorescence intensity, BSA (BSA; wavelength 673 nm): 1676.53
- Fluorescence intensity, BSA (BSA; wavelength 676 nm): 1671.89
- Fluorescence intensity, BSA (BSA; wavelength 678 nm): 1658.01
- Fluorescence intensity, BSA (BSA; wavelength 681 nm): 1606.53
- Fluorescence intensity, BSA (BSA; wavelength 683 nm): 1507.19
- Fluorescence intensity, BSA (BSA; wavelength 686 nm): 1380.4
- Fluorescence intensity, BSA (BSA; wavelength 688 nm): 1249.52
- Fluorescence intensity, BSA (BSA; wavelength 690 nm): 1137.89
- Fluorescence intensity, BSA (BSA; wavelength 693 nm): 1060.59
- Fluorescence intensity, BSA (BSA; wavelength 695 nm): 1011.56
- Fluorescence intensity, BSA (BSA; wavelength 698 nm): 981.361
- Fluorescence intensity, BSA (BSA; wavelength 700 nm): 960.577
